Here are results for four molecules from PMC13089524, “Development of SYK NanoBRET cellular target engagement assays for gain–of–function variants” (Frontiers in chemical biology, 2024).

Where only a bound is given, the exact number is not on record here.

As a reminder, the IC50 is the concentration at which inhibition is half-maximal. By Kd is commonly meant a measure of binding affinity in units of concentration. What is called EC50 is the concentration that produces a half-maximal response.

For data set [1], the target named is T1, SYK(P342T)-NL (Homo sapiens, UniProt P43405, P342T).
T1 construct: host or cells: HEK293
Put plainly: NanoBRET cellular target engagement assay in intact live HEK293 cells, SYK(P342T)-NL. It counts as cell-based.
Description: (§1) NL orientations used in the respective assays are indicated. […] Plates were incubated for 25 min at room temperature if digitonin was added or for 2 h at 37°C in 5% CO2 for the intact cell NanoBRET assay. […] For intact live cells in a 96-well plate, the 3X stock solution was prepared with 30 μL of NanoBRET NanoGlo substrate, 10 μL of extracellular NanoLuc inhibitor, and 4,960 μL of Opti-MEM without phenol red. For digitonin permeabilized live cells in a 96-well plate, the 3X stock solution was prepared with 30 μL of NanoBRET NanoGlo substrate and 4,970 μL of Opti-MEM without phenol red. Raw milliBRET units (mBU) were read on a GloMax Discover system (Promega) with a donor emission wavelength of 450 nm and an acceptor emission wavelength of 600 nm. mBU were calculated by dividing the acceptor emission values (600 nm) by the donor emission values (450 nm). For NanoBRET studies with SYK, background corrected mBU were calculated by subtracting the no tracer wells from the tracer-containing wells and multiplying by 1,000.
(§2) MRL-SYKi was used to compete away the NanoBRET signal produced with tracer 8. […] Tracer 8 was prepared in DMSO and DMEM without phenol red in 11-point dose-response format with 3 μM as the top concentration, with a final assay plate concentration of 1% DMSO. 10X stock solutions of MRL-SYKi were prepared from 10 mM DMSO stock solution with room temperature Opti-MEM without phenol red, for final assay plate concentrations of 10 μM. 10 μL of 8 (10X) was added to each well, with the exception of the no tracer control wells, and 10 μL of 10X solutions of MRL-SYKi was added to wells for tracer competition. One biological replicate was plotted in GraphPad Prism with [inhibitor] vs response (three parameters).
(§3) MRL-SYKi was tested in 11-point dose–response format with a top concentration of 10 μM. […] The final assay plate concentrations included 1% DMSO. 5 μL of 8 (20X) was added to each well, except the no tracer control wells, and 10 μL of 10X threefold diluted solutions of MRL-SYKi was added to wells. Two biological replicates were plotted in GraphPad Prism with log[inhibitor] vs response (three parameters) with the error bars indicating standard deviation.
(§4) Compounds were tested in 11-point dose–response format with a top concentration of 10 μM. Data are reported as IC50 ± standard error mean (SEM). One biological replicate was plotted in GraphPad Prism with log[inhibitor] vs response (three parameters), the three IC50’s were averaged and the SEM was calculated.

A further data set concerns JAK1. Particulars: ref Ma et al., 2015; Guo et al., 2017; cited from earlier work.
Data set [2] addresses T2, SYK(S550F)-NL (Homo sapiens, UniProt P43405, S550F).
T2 construct: host or cells: HEK293
Description: NanoBRET cellular target engagement assay in intact live HEK293 cells, SYK(S550F)-NL. It counts as cell-based.
Description: as §1, §2, §3, §4

In the next data set the target is TNK1. Particulars: only off-target kinase bound; ref Sharman et al., 2015; Cooper et al., 2023; cited from earlier work.
The target of another data set is T3, SYK(WT)-NL (Homo sapiens, UniProt P43405).
T3 construct: SYK tracers enable BRET with full-length SYK(WT) after digitonin permeabilization; host or cells: HEK293
Description: NanoBRET assay in digitonin permeabilized HEK293 cells, SYK(WT)-NL. It counts as cell-based.

Another data set addresses T4, SYK (Homo sapiens, UniProt P43405).
T4 construct: purchased Eurofins DiscoverX (contract assay service)
Put plainly: Eurofins DiscoverX SYK enzymatic radiometric assay. In kind it is biochemical.

Another data set deals with T5, SYK(A353T)-NL (Homo sapiens, UniProt P43405, A353T).
T5 construct: host or cells: HEK293
Put plainly: NanoBRET assay in digitonin permeabilized HEK293 cells, SYK(A353T)-NL. It counts as cell-based. Particulars: relative to MRL-SYKi (20 μM) treated cells, single experiment, read-out: EC50 of tracer, SYK(variant)-NL A353T. Background: Bioluminescence resonance energy transfer reports proximity on the nanometre scale.

The next data set addresses T6, SYK(M450I)-NL (Homo sapiens, UniProt P43405, M450I).
T6 construct: host or cells: HEK293
Put plainly: NanoBRET assay in digitonin permeabilized HEK293 cells, SYK(M450I)-NL. It counts as cell-based. The conditions noted are these: relative to MRL-SYKi (20 μM) treated cells, single experiment, read-out: EC50 of tracer, SYK(variant)-NL M450I.

Data set [3] has as its target T1, SYK(P342T)-NL. Put plainly: NanoBRET assay in digitonin permeabilized HEK293 cells, SYK(P342T)-NL. It counts as cell-based. Particulars: relative to MRL-SYKi (20 μM) treated cells, single experiment, read-out: EC50 of tracer, SYK(variant)-NL P342T.
Description: (§5) We performed NanoBRET tracer optimization to determine if the SYK tracers could effectively generate a BRET signal. […] To enable the NanoBRET assay using tracer 8 with cells permeabilized by digitonin, a tracer dose–response study was performed for each SYK(GoF) variant and SYK(WT) (Figure 3A), followed by tracer titration experiments (Figure 3B; Supplementary Figure S3). […] Initially, we determined the EC50 of tracer 8 for each SYK(GoF) variant and SYK(WT). […] Plates were incubated for 25 min at room temperature if digitonin was added or for 2 h at 37°C in 5% CO2 for the intact cell NanoBRET assay. […] For intact live cells in a 96-well plate, the 3X stock solution was prepared with 30 μL of NanoBRET NanoGlo substrate, 10 μL of extracellular NanoLuc inhibitor, and 4,960 μL of Opti-MEM without phenol red. […] Raw milliBRET units (mBU) were read on a GloMax Discover system (Promega) with a donor emission wavelength of 450 nm and an acceptor emission wavelength of 600 nm. mBU were calculated by dividing the acceptor emission values (600 nm) by the donor emission values (450 nm). For NanoBRET studies with SYK, background corrected mBU were calculated by subtracting the no tracer wells from the tracer-containing wells and multiplying by 1,000. […]
The target in another data set is T7, SYK(WT) (Homo sapiens, UniProt P43405).
T7 construct: Full-length human SYK(WT) DNA was custom synthesized (GenScript); 6His (N, cleaved yes); GST (N, cleaved yes); made in house; host or cells: Sf9 insect cells (baculovirus, pFastbac1)
Description: PhosphoSens SOX peptide kinase activity assay, SYK(WT). In kind it is biochemical. Particulars: dose-response, purified protein. From the text: Full-length human SYK(WT) DNA was custom synthesized (GenScript) as a codon optimized form for expression in Sf9 cells. N-terminal 6His and GST tags were introduced, followed by a TEV protease cleavage site, and cloned into pFastbac1. SYK(S550F) and SYK(P342T) were generated by site-directed mutagenesis of SYK(WT) using the NEB Q5 site directed mutagenesis kit. Plasmids were transformed into E. coli DH10Bac for bacmid generation. Recombinant bacmid DNA was used to transfect Sf9 cells to generate viral stocks. For large-scale protein production, 2 L of Sf9 cells at 2 × 10^6 cells/ml were infected with a P2 virus stock and allowed to incubate with shaking for 3 days at 27°C. Harvested cells were lysed in 200 mL lysis buffer containing 50 mM HEPES (pH 7.5), 500 mM NaCl, 10 mM imidazole, 10% glycerol, 1 mM TCEP. […]
SYK kinase activity was evaluated using a continuous kinase assay using a PhosphoSens (AssayQuant) SOX peptide, according to the protocol provided, with modifications. […] Fluorescence readings were taken at 30-s intervals for a duration ranging from 30 min to an hour, using a PheraStar FX device set to kinetic mode, employing an appropriate optics module (FI 350 460). The data was represented as a plot of relative fluorescence over time, deducting the fluorescence of control reactions (which lacked kinase) from the fluorescence recorded after introducing the kinase. […]

Data set [4] concerns the target T8, SYK(S550Y)-NL (Homo sapiens, UniProt P43405, S550Y).
T8 construct: host or cells: HEK293
Description: NanoBRET assay in digitonin permeabilized HEK293 cells, SYK(S550Y)-NL. In kind it is cell-based. The conditions noted are these: relative to MRL-SYKi (20 μM) treated cells, single experiment, read-out: EC50 of tracer, SYK(variant)-NL S550Y.
Description: as §5

Data set [5] addresses T8, SYK(S550Y)-NL. Description: NanoBRET cellular target engagement assay in intact live HEK293 cells, SYK(S550Y)-NL. It counts as cell-based. Particulars: intact cells, ± 10 μM MRL-SYKi, single experiment; read-out: cellular EC50 of the tracer, SYK(S550Y)-NL.
Description: as §1, §2, §3, §4
Data set [6] deals with T2, SYK(S550F)-NL. Description: NanoBRET assay in digitonin permeabilized HEK293 cells, SYK(S550F)-NL. It counts as cell-based. Particulars: relative to MRL-SYKi (20 μM) treated cells, single experiment, read-out: EC50 of tracer, SYK(variant)-NL S550F.
Description: as §5
The nature of data set [7]: Solubility of tracer in NanoBRET assay medium. In kind it is physicochemical. The conditions noted are these: dose-response top concentration 3 μM.
In data set [8] the test system is pSYK(Y525/526) in SW480 cells stably expressing SYK(S550Y). Particulars: ref Wang et al. (2021); cited from earlier work.

Description for SYK(A353T)-NL: as §5
Description for SYK(M450I)-NL: as §5
Description for SYK(WT)-NL: We performed NanoBRET tracer optimization to determine if the SYK tracers could effectively generate a BRET signal. […] To enable the NanoBRET assay using tracer 8 with cells permeabilized by digitonin, a tracer dose–response study was performed for each SYK(GoF) variant and SYK(WT) (Figure 3A), followed by tracer titration experiments (Figure 3B; Supplementary Figure S3). […] Initially, we determined the EC50 of tracer 8 for each SYK(GoF) variant and SYK(WT). […] Plates were incubated for 25 min at room temperature if digitonin was added or for 2 h at 37°C in 5% CO2 for the intact cell NanoBRET assay. […] For intact live cells in a 96-well plate, the 3X stock solution was prepared with 30 μL of NanoBRET NanoGlo substrate, 10 μL of extracellular NanoLuc inhibitor, and 4,960 μL of Opti-MEM without phenol red. For digitonin permeabilized live cells in a 96-well plate, the 3X stock solution was prepared with 30 μL of NanoBRET NanoGlo substrate and 4,970 μL of Opti-MEM without phenol red. Raw milliBRET units (mBU) were read on a GloMax Discover system (Promega) with a donor emission wavelength of 450 nm and an acceptor emission wavelength of 600 nm. mBU were calculated by dividing the acceptor emission values (600 nm) by the donor emission values (450 nm). For NanoBRET studies with SYK, background corrected mBU were calculated by subtracting the no tracer wells from the tracer-containing wells and multiplying by 1,000.
HEK293 cells were transfected with constructs of SYK(WT) or SYK(KD) tagged with NL on the C- or N-terminus and SYK GoF variants tagged with NL on the C-terminus. Tracer 8 (20X) was prepared from a 400 μM stock solution in DMSO with tracer dilution buffer (Promega, #N291B) and 20% DMSO, with a final assay plate concentration of 1% DMSO. 5 μL of 8 (20X) was added to each well, with exception of the no tracer control wells, with final plate concentrations of 0.5, 1, and 2 μM. 10 μL of digitonin (Fisher, 10X, 500 μg/mL) was added to specific wells to permeabilize the cells. The 10X digitonin stock was prepared by diluting a 40X DMSO solution of digitonin with room temperature Opti-MEM without phenol red, for a final assay plate concentration of 1% DMSO. SYK inhibitor stock solutions of MRL-SYKi (10X) were prepared from 10 mM DMSO stock solutions with room temperature Opti-MEM without phenol red, for final assay plate concentrations of 10 μM. Plates were incubated for 25 min at room temperature if digitonin was added or for 2 h at 37°C in 5% CO2 for the intact cell NanoBRET assay. Two technical replicates were plotted in a bar chart with the standard deviation represented as error bars on Graphpad Prism.

As for `CCS(=O)(=O)N1CCN(c2ccc(Nc3ncc(C(N)=O)c(NC4CC4)n3)cc2)CC1` [Cerdulatinib], the concentration for half-maximal inhibition (IC50) was 0.36 ± 0.036 µM on SYK(P342T)-NL [1] (intact HEK293 cells, 125 nM tracer 8, average of triplicate ± SEM, read-out: SYK(P342T) IC50); 0.012 µM in the data set with JAK1; 0.17 ± 0.021 µM on SYK(S550F)-NL [2] (intact HEK293 cells, 125 nM tracer 8, average of triplicate ± SEM, read-out: SYK(S550F) IC50).

With `c1cn2cc(-c3ccc4cn[nH]c4c3)nc(Nc3ccc(N4CCOCC4)cc3)c2n1` [Entospletinib], the Kd on TNK1 was < 0.1 µM.

For the molecule `Cc1cc(Nc2nccc(C)n2)cc(-c2cnc([C@@]3(O)CC[C@H](C(=O)NCCCNC(=O)CCc4ccc5n4[B-](F)(F)[N+]4=C(c6ccc[nH]6)C=CC4=C5)C(C)(C)C3)s2)c1` [Tracer 8], the “BRET signal (background subtracted)” value on SYK(WT)-NL (C-terminal NL fusion, tracer 0.5, 1, 2 μM) is reported as “approximately 15 mBU”. Also, the half-maximal effective concentration (EC50) on SYK(WT)-NL (relative to MRL-SYKi (20 μM) treated cells, single experiment, read-out: EC50 of tracer, SYK(variant)-NL WT) was found to be 0.039 µM; at SYK(P342T)-NL [1] (intact cells, ± 10 μM MRL-SYKi, single experiment, read-out: cellular EC50 of the tracer, SYK(P342T)-NL), 0.28 µM; at SYK(A353T)-NL, 0.024 µM; on SYK(M450I)-NL, 0.065 µM; on SYK(P342T)-NL [3] it was 0.009 µM; on SYK(S550F)-NL [2] (intact cells, ± 10 μM MRL-SYKi, single experiment, read-out: cellular EC50 of the tracer, SYK(S550F)-NL), 0.273 µM. Further, the EC50 on SYK(S550Y)-NL [4] amounted to 0.008 µM; on SYK(S550Y)-NL [5], 0.159 µM; at SYK(S550F)-NL [6], 0.007 µM. At SYK (Km value for ATP, 9-pt dose-response), this molecule showed an IC50 of 0.11 µM. For the same molecule, the “decrease in potency compared to the parent inhibitor MRL-SYKi” value at SYK (ratio of enzymatic IC50) is recorded as 3.6 fold. Further, on SYK(WT), the “effect on SYK(WT) catalytic activity” value is “inhibits SYK(WT) catalytic activity”. Moreover, the solubility result in data set [7] is “solubility issues at >3 μM”.

`COc1cc(Nc2ncc(F)c(Nc3ccc4c(n3)NC(=O)C(C)(C)O4)n2)cc(OC)c1OC` [Tracer R406]: the S550Y phosphorylation levels result in [8] is given as “decrease S550Y phosphorylation levels”.
